The results in this text go back to patent US20110183929A1, “STANDARDIZED EXTRACT AND FRACTION FROM HANCORNIA SPECIOSA LEAVES AND PHARMACEUTICAL COMPOSITION THEREOF” (priority 2008, published 2011).

By IC50 is commonly meant the concentration at which inhibition is half-maximal.

For assay [1], the target named is T1, angiotensin converting enzyme (ACE) (Oryctolagus cuniculus, UniProt P12822).
T1 sequence (P12822 34-1310): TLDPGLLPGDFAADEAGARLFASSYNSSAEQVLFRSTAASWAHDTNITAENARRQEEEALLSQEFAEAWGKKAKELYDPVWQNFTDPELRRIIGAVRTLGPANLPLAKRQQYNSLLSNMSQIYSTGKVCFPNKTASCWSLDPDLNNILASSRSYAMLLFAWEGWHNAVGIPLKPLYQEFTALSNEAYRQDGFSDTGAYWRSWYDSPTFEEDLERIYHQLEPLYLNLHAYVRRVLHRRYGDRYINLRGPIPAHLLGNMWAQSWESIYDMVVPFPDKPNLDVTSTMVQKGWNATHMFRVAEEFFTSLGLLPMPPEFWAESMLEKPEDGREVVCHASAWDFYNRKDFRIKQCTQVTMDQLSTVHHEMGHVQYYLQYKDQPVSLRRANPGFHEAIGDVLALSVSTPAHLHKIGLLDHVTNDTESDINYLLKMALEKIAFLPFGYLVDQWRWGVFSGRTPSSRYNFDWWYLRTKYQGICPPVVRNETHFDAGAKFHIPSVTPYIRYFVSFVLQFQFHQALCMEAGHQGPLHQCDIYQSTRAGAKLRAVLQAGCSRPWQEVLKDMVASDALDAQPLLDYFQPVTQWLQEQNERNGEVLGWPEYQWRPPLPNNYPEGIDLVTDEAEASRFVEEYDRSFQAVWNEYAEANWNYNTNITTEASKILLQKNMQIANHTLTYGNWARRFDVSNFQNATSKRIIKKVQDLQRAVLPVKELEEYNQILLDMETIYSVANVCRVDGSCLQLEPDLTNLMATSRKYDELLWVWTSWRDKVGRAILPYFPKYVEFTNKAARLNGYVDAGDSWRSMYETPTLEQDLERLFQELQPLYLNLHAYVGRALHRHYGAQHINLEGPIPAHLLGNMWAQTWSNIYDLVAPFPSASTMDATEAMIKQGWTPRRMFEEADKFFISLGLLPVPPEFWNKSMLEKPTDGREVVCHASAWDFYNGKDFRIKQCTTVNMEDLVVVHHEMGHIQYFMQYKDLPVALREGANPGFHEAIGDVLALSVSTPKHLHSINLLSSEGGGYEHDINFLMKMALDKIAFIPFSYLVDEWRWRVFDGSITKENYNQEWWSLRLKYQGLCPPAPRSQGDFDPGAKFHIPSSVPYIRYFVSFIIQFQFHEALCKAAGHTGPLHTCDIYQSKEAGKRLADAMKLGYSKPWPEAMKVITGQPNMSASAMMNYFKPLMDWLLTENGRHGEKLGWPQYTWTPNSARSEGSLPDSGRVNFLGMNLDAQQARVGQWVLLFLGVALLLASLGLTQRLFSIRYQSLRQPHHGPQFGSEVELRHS
Description: colorimetric ACE inhibition assay (Serra et al.). The assay is classed as biochemical. The following applies: read-out: ACE inhibiting activity IC50. An excerpt:
Despite being exhaustively referred to in ethnobotanic surveys, only few biological activities of Hancornia speciosa have been assessed. ACE inhibiting activity for ethanolic extract from the leaves of the said species has been referred to by Serra et al. (Serra, C. P.; Cortes, S. F.; Lombardi, J. A.; Braga De Oliveira, A.; Braga, F. C. Validation of a […] assay for the in vitro screening of inhibitors of angiotensin-converting enzyme (ACE) from plant extracts. Phytomedicine, v. 12, n. 6-7, 2005). These authors assessed several species of the Brazilian flora as for their ACE inhibiting potential. […] P.; Cortes, S. F.; Lombardi, J. A.; Braga De Oliveira, A.; Braga, F. C. Validation of a colorimetric assay for the in vitro screening of inhibitors of angiotensin-converting enzyme (ACE) from plant extracts. Phytomedicine, v. 12, n. 6-7, 2005), in the concentration of 0.1 mg/ml.

Another assay relates to normotensive mice. The assay can be described thus: systolic pressure in normotensive mice (caudal vessel). Conditions: 1 mg/kg delivered orally. The assay is classed as in vivo.

Turning to `C[C@@H]1O[C@@H](OC[C@H]2O[C@@H](Oc3c(-c4ccc(O)c(O)c4)oc4cc(O)cc(O)c4c3=O)[C@H](O)[C@@H](O)[C@@H]2O)[C@H](O)[C@H](O)[C@H]1O` [rutin], the IC50 in assay [1] turned out to be 454 ± 78.4 µM.
`COC1[C@H](O)[C@H](O)C(O)[C@H](O)[C@H]1O` (stereo partly drawn) [L-(+)-bornesitol]: the IC50 in assay [1] was determined as 41.4 ± 9.6 µM.
On to `C[C@H](CS)C(=O)N1CCC[C@H]1C(=O)O` [Captopril], for which, in the assay with normotensive mice, the “systolic arterial pressure / hypotensive effect” value was “significant hypotensive effect, but of low intensity and short duration”.
